Like-named read-outs stand apart in the source and are kept apart here. Starred links: 1 amine or outer side, 2 acyl side, 3 side chain; linkers in the order of their positions; H or OH if unused. Positions of bridges follow the written chain, without caps; N, C: chain ends. Non-standard residues stand in square brackets, D forms with d. Residues, ends and D or L forms follow the SMILES beside them. Chains are numbered I, II in the order given. *: point of attachment. Actinocin(9to1) = Cc1c2oc3c(C)ccc(C(=O)[*:1])c3nc-2c(C(=O)[*:2])c(N)c1=O; NMeV = CN[C@H](C(=O)O)C(C)C; Cbz = O=C(OCc1ccccc1)*; Sar = CNCC(=O)O; CH2F = FC*
Tests used:
[1] = biological target: p33^QIK; test: In-gel kinase assay (MBP substrate) of p33^QIK activity in treated NIH3T3 cultures; format: cell-based, mouse; details: for TPA-induced deactivation of p33^QIK: quiescent NIH3T3, co-treatment with 100 ng/ml TPA; for serum-induced down-regulation of p33^QIK activity: quiescent NIH3T3, co-treatment with 10% serum; for induction of p33^QIK activity: cultures preincubated with caspase inhibitor prior to serum starvation and osmotic stress
Procedure: (§1) Mouse NIH3T3 fibroblast cultures were maintained in Dulbecco's modified Eagle's medium (DMEM)(BRL/GIBCO, Grand Island, N.Y.) supplemented with 5% calf serum, 50 units/ml penicillin, and 5 mcg/ml streptomycin, and cultivated at 37° C.
(§2) Mouse 10T1/2 fibroblast cultures were maintained in Basal medium Eagle (BRL/GIBCO, Grand Island, N.Y.) supplemented with 10% heat-inactivated fetal bovine serum, 50 U/ml penicillin, and 5 μg/ml streptomycin, and cultivated at 37° C. Cells synchronized in quiescent state were growth-arrested by serum starvation for 48 hr. Actinomycin D (ActD), cycloheximide (CHXM), 12-0-tetradecanoylphorbol 13-acetate (TPA), staurosporine (STSP) (Sigma Chemical, St. Louis, Mo.), sodium fluoride (NaF), sodium orthovanadate (Na3VO4) (Fisher Scientific, Pittsburgh, Pa.), and FR901228 (FR)(NCI, Frederick, Md.) were diluted in cultured medium before treatment of cultured cells. A broad range caspase inhibitor Z-Asp-[(2,6-dichlorobenzoyl)oxy]methane (Z-D-CH2-DCB) (Dolle et al., 1994; Mashima et al., 1995)(CALBIOCHEM, La Jolla, Calif.) was dissolved in dimethyl sulfoxide and diluted in cultured medium for treatment. Recombinant human Caspase-3 was purchased from Alexis Biochemicals (San Diego, Calif.). Protein phosphatase 1 (PP1) and Lambda protein phosphatase (λPPase) were purchased from NE BioLabs (Beverly, Mass.). Production of rabbit polyclonal antibody Ab-KQ to p63^Krsl and p33^QIK was made using peptide sequences of Krsl as antigens (Alpha Diagnostic International, San Antonio, Tex.). UV irradiation was carried out using a UV Crosslinker (Stratagene, La Jolla, Calif.).
(§3) Cells were lysed with 30 strokes of a tight-fitting Dounce homogenizer in lysis A buffer (10 mM KH2PO4, 1 mM EDTA, 5 mM EGTA, 10 mM MgCl2, 50 mM […], 1 mM Na3VO4, 2 mM dithiothreitol) (Wang et al., 1992). Cytoplasmic proteins (S20) were isolated from the supernatants after centrifugation of crude lysates at 20,000 ×g for 20 min. Protein concentration in S20 was measured by using the BCA assay (Pierce, Rockford, Ill.). Immunoprecipitation of p33^QIK was carried out by incubation of S20 with the specific antibody Ab-KQ at 0° C. for 1 hr. Immune complexes were adsorbed to Pansorbin (Staphylococcus aureus) (CALBIOCHEM, La Jolla, Calif.) at 0° C. for 30 min and washed with STE buffer (50 mM Tris-HCl, pH 7.0, 150 mM NaCl, 1 mM Na2 EDTA) supplemented with 0.1 mM DTT and 0.1% NP-40 and ST buffer supplemented with 1 mM DTT.
(§4) MBP (BRL/GIBCO, Grand Island, N.Y.) was used as a substrate in the assay and the in-gel kinase assay was performed as previously described (Wang et al., 1992). Briefly, 10% SDS-polyacrylamide gel (SDS-PAG) was copolymerized with 0.4 mg/ml MBP. Cellular proteins were resolved in the MBP-immobilized SDS-PAG, followed by rinsing the gel with 20% isopropanol in buffer B (100 mM Tris, pH 8, 5 mM β-mercaptoethanol). The gel was denatured in buffer B supplemented with 6 M guanidine-HCl and renatured with buffer B supplemented with 0.04% Tween 40 (Kameshita and Fujisawa, 1989). Kinase reaction was carried out by incubating the gel with kinase buffer (20 Mm Tris, pH 7.2, 10 mM MgCl2, 15 mM β-glycerolphosphate) supplemented with 50 μM γATP and 50 μCi of [γ-^32P]ATP at 22° C. for 30 min. The gel was washed with 1% sodium pyrophosphate in 5% trichloroacetic acid. Protein kinases which phosphorylated MBP in the gel were detected by autoradiography of the [γ^32P]-labeled MBP.

[2] = biological target: p44/42^Erk; format: cell-based, mouse
Procedure: as §1, §2, §3, §4

[3] = system: NIH3T3 cultures; test: Cell death in quiescent NIH3T3 cultures; format: cell-based, mouse; details: quiescent cultures treated with ActD or CHXM for 3 hr
[4] = system: NIH3T3 cells; test: Flow cytometric analysis of DNA content (cell cycle phase); format: cell-based, mouse
Procedure: After rinsing with phosphate buffered saline (PBS), cells were trypsinized from culture dishes, rinsed with Ca^++ and Mg^++ free PBS, fixed in 70% cold ethanol, and stained with 10 μg/ml propidium iodide (PI) for 30 min (Darzynkiewicz et al., 1995). Flow cytometry analysis was performed on the Coulter EPICS Elite Cytometer (Hialeah, Fla.) using 15 mW air-cooled argon laser producing 488-nm light in which PI fluorescence light emission is collected with a 610LPDC filter. Extended analysis of DNA content and calculation of the percentage of cells in each phase of the cell cycle were performed on Multicycle software (Phoenix Flow System, San Diego, Calif.).

[5] = biological target: p33^QIK; test: In-gel kinase assay of p33^QIK activity in 10T1/2 cultures; format: cell-based; details: mouse fibroblast 10T1/2 cultures treated with FR
Procedure: as §2, with “Production of rabbit polyclonal antibody Ab-KQ to p63^Krsl and p33^QIK was made using peptide sequences of Krsl as antigens (Alpha Diagnostic International, San Antonio, Tex.). UV irradiation was carried out using a UV Crosslinker (Stratagene, La Jolla, Calif.).” left out
(§5) MBP (BRL/GIBCO, Grand Island, N.Y.) was used as a substrate in the assay and the in-gel kinase assay was performed as previously described (Wang et al., 1992). […] Protein kinases which phosphorylated MBP in the gel were detected by autoradiography of the [γ^32P]-labeled MBP.

[6] = system: 33 kDa-MBP kinase; details: MCF-7 and MDA-MB361 cells treated with FR (Rajgolikar et al., 1998); cited from earlier work
[7] = biological target: p63^Krsl; test: In-gel kinase assay (MBP substrate) of p63^Krsl activity in treated NIH3T3 cultures; format: cell-based, mouse
Procedure: as §1
Mouse 10T1/2 fibroblast cultures were maintained in Basal medium Eagle (BRL/GIBCO, Grand Island, N.Y.) supplemented with 10% heat-inactivated fetal bovine serum, 50 U/ml penicillin, and 5 μg/ml streptomycin, and cultivated at 37° C. Cells synchronized in quiescent state were growth-arrested by serum starvation for 48 hr. […]
Cells were lysed with 30 strokes of a tight-fitting Dounce homogenizer in lysis A buffer (10 mM KH2PO4, 1 mM EDTA, 5 mM EGTA, 10 mM MgCl2, 50 mM […], 1 mM Na3VO4, 2 mM dithiothreitol) (Wang et al., 1992). […] Protein concentration in S20 was measured by using the BCA assay (Pierce, Rockford, Ill.). […]
as §5

[8] = system: cells; details: cited from earlier work
[9] = biological target: T1, Caspase-3 (Homo sapiens, UniProt P42574); test: Inhibition of caspase-3 modification of immune complexes; format: biochemical; details: 5 μM inhibitor, 0.2 μg Caspase-3, 37° C., 30 min
T1 construct: purchased Alexis Biochemicals (San Diego, Calif.)
T1 sequence (P42574 29-175 limits assumed): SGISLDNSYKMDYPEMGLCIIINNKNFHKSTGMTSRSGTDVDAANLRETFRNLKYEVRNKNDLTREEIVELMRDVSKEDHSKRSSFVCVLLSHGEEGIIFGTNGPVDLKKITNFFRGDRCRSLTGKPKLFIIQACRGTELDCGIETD
Procedure: Both p63^Krsl and p33^QIK in 10 μg of cytosolic lysates (S20) were immunoprecipitated by Ab-KQ (lanes 2 to 4 and 6 to 8), followed by reatment with 0.2 μg Caspase-3 (C)(lanes 3, 4, 7 and 8) in the presence of 5 μM caspase inhibitor Z-D-CH2-DCB (C+I)(lanes 4 and 8) at 37° C. for 30 min. The kinase activities of p63^Krsl, p35, and p33^QIK in 5 μg of S20 (lanes 1 and 5) and in the immune complexes were determined by the in-gel kinase assay using MBP as a substrate. Bars indicate p63^Krsl p35, and p33^QIK.
Mouse 10T1/2 fibroblast cultures were maintained in Basal medium Eagle (BRL/GIBCO, Grand Island, N.Y.) supplemented with 10% heat-inactivated fetal bovine serum, 50 U/ml penicillin, and 5 μg/ml streptomycin, and cultivated at 37° C. Cells synchronized in quiescent state were growth-arrested by serum starvation for 48 hr. Actinomycin D (ActD), cycloheximide (CHXM), 12-0-tetradecanoylphorbol 13-acetate (TPA), staurosporine (STSP) (Sigma Chemical, St. Louis, Mo.), sodium fluoride (NaF), sodium orthovanadate (Na3VO4) (Fisher Scientific, Pittsburgh, Pa.), and FR901228 (FR)(NCI, Frederick, Md.) were diluted in cultured medium before treatment of cultured cells. […]

[10] = quiescent NIH3T3, absence of serum, 5 μg/ml ActD or 10 μg/ml CHXM, 1 or 3 hr
[11] = 5 μg/ml ActD or 10 μg/ml CHXM, 1 or 3 hr
[12] = quiescent NIH3T3 treated with serum or TPA in the presence of ActD or CHXM
[13] = proliferating NIH3T3 cultures, 5 nM FR, 24 hr
[14] = NIH3T3 synchronized by serum starvation, 18 hr serum, then 10 nM STSP for 24 hr
[15] = quiescent NIH3T3 cultures (48 hr serum starvation) stimulated with reagent, 1-6 hr

Cc1c2oc3c(C)ccc(C(=O)N[C@@H]4C(=O)N[C@H](C(C)C)C(=O)N5CCC[C@H]5C(=O)N(C)CC(=O)N(C)[C@@H](C(C)C)C(=O)O[C@@H]4C)c3nc-2c(C(=O)N[C@@H]2C(=O)N[C@H](C(C)C)C(=O)N3CCC[C@H]3C(=O)N(C)CC(=O)N(C)[C@@H](C(C)C)C(=O)O[C@@H]2C)c(N)c1=O [ActD, Actinomycin D] (I: T[dV]P[Sar][NMeV] / II: T[dV]P[Sar][NMeV]; ester I:1-I:C, II:1-II:C; linker I:N-II:N via Actinocin(9to1))
kinase activity of p33^QIK [1, 10]: significant increases of p33^QIK activity
TPA-induced deactivation of p33^QIK [1, 11]: blockage of the TPA-induced deactivation of p33^QIK but also in an increase in the kinase activity of p33^QIK
serum-induced down-regulation of p33^QIK activity [1, 11]: blocked the serum-induced down-regulation of p33^QIK activity
kinase activity of p44/42^Erk [2, 12]: constant activation of p44/42^Erk
cell death [3]: extensive cell death occurred

C[C@@H]1C[C@@H]([C@H](O)CC2CC(=O)NC(=O)C2)C(=O)[C@@H](C)C1 [CHXM, cycloheximide]
kinase activity of p33^QIK [1, 10]: significant increases of p33^QIK activity
TPA-induced deactivation of p33^QIK [1, 11]: blockage of the TPA-induced deactivation of p33^QIK but also in an increase in the kinase activity of p33^QIK
serum-induced down-regulation of p33^QIK activity [1, 11]: blocked the serum-induced down-regulation of p33^QIK activity
kinase activity of p44/42^Erk [2, 12]: constant activation of p44/42^Erk
cell death [3]: extensive cell death occurred

C/C=C1\NC(=O)[C@H]2CSSCC/C=C/[C@H](CC(=O)N[C@H](C(C)C)C(=O)N2)OC(=O)[C@H](C(C)C)NC1=O [FR, FR901228]
kinase activity of p33^QIK [1, 13]: p33^QIK activity was induced
cell population in each phase of the cell cycle [4, 13]: growth arrest of cells in G0/G1 phase was evident
kinase activity of p33^QIK [5]: Activation of p33^QIK was also detected
33 kDa-MBP kinase activity [6]: induction of a 33 kDa-MBP kinase activity

CN[C@@H]1C[C@H]2O[C@@](C)([C@@H]1OC)n1c3ccccc3c3c4c(c5c6ccccc6n2c5c31)C(=O)NC4 [STSP, staurosporine]
kinase activity of p33^QIK [1, 14]: activation of p33^QIK was detected
kinase activity of p63^Krsl ([7]; quiescent NIH3T3 cultures, 100 nM STSP, 2 hr): activated p63^Krsl
cell population in each phase of the cell cycle [4, 14]: a major population of cells was arrested in G0/G1 state
concentration arresting cells in G2 phase ([8]; high concentration): 100 to 150 nM
concentration arresting cells in early G1 phase ([8]; low concentration): 2 to 20 nM

O=C(O)CC(NC(=O)OCc1ccccc1)C(=O)COC(=O)c1c(Cl)cccc1Cl [Z-D-CH2-DCB, Z-Asp-[(2,6-dichlorobenzoyl)oxy]methane]
induction of p33^QIK activity [1]: neither blocked induction of p33^QIK activity
blockage of caspase-3 induced changes in p63^Krsl, p35 and p33^QIK activity [9]: completely blocked

COC(=O)C[C@H](NC(=O)[C@H](C)NC(=O)[C@@H](NC(=O)OCc1ccccc1)C(C)C)C(=O)CF [Z-VAD-FMK] (Cbz-Val-Ala-Asp(OMe)-CH2F)
induction of p33^QIK activity [1]: neither blocked induction of p33^QIK activity

C=C1[C@@H](O)[C@@H]2O[C@]3(CC[C@H](/C=C/[C@@H](C)[C@@H]4CC(C)=C[C@@]5(O[C@H](C[C@@](C)(O)C(=O)O)CC[C@H]5O)O4)O3)CC[C@H]2O[C@@H]1[C@@H](O)C[C@H](C)[C@H]1O[C@@]2(CCCCO2)CC[C@H]1C [okadaic acid]
kinase activity of p33^QIK [1, 15]: did not result in deactivation of p33^QIK
kinase activity of p63^Krsl ([7]; quiescent NIH3T3 cultures stimulated with reagent): activated p63^Krsl

CCCCCCCCCCCCCC(=O)O[C@@H]1[C@@H](C)[C@@]2(O)[C@@H](C=C(CO)C[C@]3(O)C(=O)C(C)=C[C@@H]23)[C@H]2C(C)(C)[C@]12OC(C)=O [phorbol ester, 12-0-tetradecanoylphorbol 13-acetate]
kinase activity of p33^QIK [1, 15]: progressive decrease of p33^QIK activity
kinase activity of p44/42^Erk [2, 15]: transient induction of p44/42^Erk activity

[F-].[Na+] [sodium fluoride]
kinase activity of p33^QIK [1, 15]: resulted in deactivation of p33^QIK
kinase activity of p44/42^Erk [2, 15]: induced p44/42^Erk activity

sodium orthovanadate [sodium vanadate]
kinase activity of p33^QIK [1, 15]: accelerated deactivation of p33^QIK
kinase activity of p44/42^Erk [2, 15]: profound and constant activation of p44/42^Erk

— patent publication US20030170252A1, “Antibody compositions specific for p33QIK and p63Krs1 polypeptides and uses thereof” (priority 2000, published 2003)
